Experimental data taken from patent US20250332392A1, “APPARATUSES AND METHODS FOR TREATMENT OF FEMALE URINARY INCONTINENCE” (THE BOARD OF REGENTS OF THE UNIVERSITY OF TEXAS SYSTEM, priority 2022, published 2025).

Assays:
[1] = system: urinary incontinence (UI) episodes; assay: clinical trial of oral sildenafil in women: UI episodes and side effects; type: in vivo
Source text: In view of this, the inventors determined to develop a way to administer sildenafil directly to the muscles and structures of the pelvic floor using an intravaginal apparatus. Disclosed in the discussion that follows are example embodiments of intravaginal apparatuses that can be used for treating urinary incontinence.

[2] = clinical trial pharmacokinetics: plasma and cervicovaginal (CVF) secretion drug concentrations after oral sildenafil; type: in vivo; conditions: women, oral 20 mg 3 times a day for a month
Description: A series of pharmacokinetic and safety studies were conducted in both women and sheep.

CCCc1nn(C)c2c(=O)[nH]c(-c3cc(S(=O)(=O)N4CCN(C)CC4)ccc3OCC)nc12 [sildenafil]
side effects ([1]; women taking oral sildenafil): flushing, visual changes, and gastrointestinal changes | number of UI episodes per day ([1]; women taking oral sildenafil (20 mg 3 times a day for a month)): decrease | dependence of CVF secretion drug concentrations on plasma drug concentrations [2]: not dependent on the plasma drug concentrations | CVF secretion drug concentrations compared with plasma drug concentrations ([2]; later timepoints after the last oral dose): higher than the plasma drug concentrations
